Article PMC5347165, “Killing of Staphylococcus aureus and Salmonella enteritidis and neutralization of lipopolysaccharide by 17-residue bovine lactoferricins: improved activity of Trp/Ala-containing molecules” (Scientific Reports, 2017)
Converted amounts (≈) assume the structure as drawn. Read-outs that look alike come from different tables or passages of the source. Ends that are not written are not given here.

Assays:
S. enteritidis CVCC3377 = type: cell-based, Salmonella enteritidis; details: CVCC3377, 18 h
Description: (§1) The MIC values of LfcinB17-33 derivatives against bacteria were determined by the microtiter broth dilution method. Briefly, 10 μl of serially diluted aliquots of peptides were added to each well of 96-well microtiter plates, followed by the addition of 90 μl exponential phase bacteria (10^5 CFU/ml) and incubated for 16‒18 h at 37 °C.

[1] = system: Salmonella typhimurium ATCC14028; type: cell-based; details: ATCC14028, 18 h
Description: as §1

[2] = system: Pseudomonas aeruginosa CICC10419; type: cell-based; details: CICC10419, 18 h
Description: as §1

[3] = system: Streptococcus suis CVCC606; type: cell-based; details: 18 h
Description: as §1

[4] = system: Staphylococcus aureus ATCC43300; type: cell-based; details: ATCC43300, 18 h
Description: as §1

[5] = system: Bacillus subtilis ATCC6633; type: cell-based; details: ATCC6633, 18 h
Description: as §1

S. choleraesuis CVCC503 = type: cell-based; details: CVCC503, 18 h
Description: as §1

[6] = system: Enterococcus faecium CMCC1.2136; type: cell-based; details: CMCC1.2136, 18 h
Description: as §1

Escherichia coli CVCC195 = type: cell-based; details: CVCC195, 18 h
Description: as §1

S. pullorum CVCC1789 = type: cell-based; details: CVCC1789, 18 h
Description: as §1

S. pullorum CVCC1802 = type: cell-based; details: CVCC1802, 18 h
Description: as §1

E. coli CVCC1515 = type: cell-based, Escherichia coli; details: CVCC1515, 18 h
Description: as §1

[7] = system: E. coli CICC21530 (serotype O157:H7); type: cell-based, Escherichia coli; details: microtiter broth dilution, 10^5 CFU/ml, 16‒18 h at 37 °C; representative of three independent experiments
Description: as §1

P. aeruginosa CICC21630 = type: cell-based, Pseudomonas aeruginosa; details: CICC21630, 18 h
Description: as §1

S. aureus ATCC25923 [8] = type: cell-based, Staphylococcus aureus; details: ATCC25923, 18 h
Description: as §1

LPS from E. coli O111:B4 = assay: LPS-induced endotoxemia model, survival; type: in vivo, mouse (C57BL/6); details: 15 mg/kg i.p. at 0.5, 8 and 24 h after LPS 30 mg/kg i.p.; followed 7 d; groups of eight mice
Description: Male C57BL/6 mice (8 weeks old, 22 ± 2 g) were intraperitoneally injected with 30 mg/kg of LPS (0.2 ml) from E. coli O111:B4 cells as previously described. Mice were intraperitoneally injected with Lfcin4 or Lfcin5 (10, 15 or 20 mg/kg of body weight in 0.2 ml) or colistin (15 mg/kg of body weight in 0.2 ml) at 0.5, 8 and 24 h after inoculation with LPS, respectively. Mice injected with LPS or saline only served as positive or mock-treated controls, respectively. Survival was recorded every 12 h and followed for up to 7 d.

mouse erythrocytes = details: 256 μg/ml; cited from earlier work
S. aureus ATCC25923 [9] = type: in vivo
Description: The thigh infection protocol was performed as previously described. Female BALB/c mice (6 weeks old, 22 ± 2 g) were rendered neutropenic (neutrophils, 100/mm^3) by intraperitoneal injection with 150 and 100 mg cyclophosphamide per kg of body weight for 4 d and 1 d before infection, respectively. Mice were inoculated with 100 μl of S. aureus ATCC25923 cells (1.0 × 10^7 CFU/ml) and given a single dose (0.2 ml) of Lfcin4 or Lfcin5 (10 or 15 mg/kg of body weight) or vancomycin (10 mg/kg of body weight) by tail vein injection at 2 h post-infection. Mice were humanely euthanized by cervical dislocation at 5 and 10 h after treatment. Thighs were removed and homogenized in sterile PBS for a CFU assay for S. aureus ATCC25923.

Molecule: CSCC[C@H](NC(=O)[C@H](CCCNC(=N)N)NC(=O)[C@H](Cc1c[nH]c2ccccc12)NC(=O)[C@H](CCC(N)=O)NC(=O)[C@H](Cc1c[nH]c2ccccc12)NC(=O)[C@H](CCCNC(=N)N)NC(=O)[C@H](CCCNC(=N)N)NC(=O)[C@H](CS)NC(=O)[C@H](CCCCN)NC(=O)[C@@H](N)Cc1ccccc1)C(=O)N[C@@H](CCCCN)C(=O)N[C@@H](CCCCN)C(=O)N[C@@H](CC(C)C)C(=O)NCC(=O)N[C@@H](C)C(=O)N1CCC[C@H]1C(=O)N[C@@H](CO)C(=O)O [Lfcin2]
- MIC (S. enteritidis CVCC3377): 15 µM (≈ 32.7 µg/mL)
- MIC [1]: 29 µM (≈ 63.2 µg/mL)
- MIC [2]: >59 µM
- MIC [3]: >59 µM
- MIC [4]: >59 µM
- MIC [5]: 29 µM (≈ 63.2 µg/mL)
- MIC (S. choleraesuis CVCC503): 59 µM (≈ 129 µg/mL)
- MIC [6]: 15 µM (≈ 32.7 µg/mL)
- MIC (Escherichia coli CVCC195): 15 µM (≈ 32.7 µg/mL)
- MIC (S. pullorum CVCC1789): >59 µM
- MIC (S. pullorum CVCC1802): >59 µM
- MIC (E. coli CVCC1515): >59 µM
- MIC [7]: 59 µM (≈ 129 µg/mL)
- MIC (P. aeruginosa CICC21630): >59 µM
- MIC (S. aureus ATCC25923 [8]): 0.92 µM (≈ 2 µg/mL)

Molecule: FKCWRWQWRWKKLGAPS [Lfcin6]
- MIC (S. enteritidis CVCC3377): 7.1 µM
- MIC [1]: >57 µM
- MIC [2]: >57 µM
- MIC [3]: >57 µM
- MIC [4]: >57 µM
- MIC [5]: 57 µM
- MIC (S. choleraesuis CVCC503): >57 µM
- MIC [6]: 14 µM
- MIC (Escherichia coli CVCC195): 57 µM
- MIC (S. pullorum CVCC1789): >57 µM
- MIC (S. pullorum CVCC1802): >57 µM
- MIC (E. coli CVCC1515): 57 µM
- MIC [7]: 57 µM
- MIC (P. aeruginosa CICC21630): >57 µM
- MIC (S. aureus ATCC25923 [8]): 7.1 µM

Molecule: colistin [reference compound]
- survival rate (LPS from E. coli O111:B4): 75%

Molecule: FKAFRWAWRMKKLAAPS [Lfcin3]
- MIC (S. enteritidis CVCC3377): 1.9 µM
- MIC [1]: 61 µM
- MIC [2]: >61 µM
- MIC [3]: 61 µM
- MIC [4]: >61 µM
- MIC [5]: 15 µM
- MIC (S. choleraesuis CVCC503): 61 µM
- MIC [6]: 15 µM
- MIC (Escherichia coli CVCC195): 31 µM
- MIC (S. pullorum CVCC1789): >61 µM
- MIC (S. pullorum CVCC1802): >61 µM
- MIC (E. coli CVCC1515): 31 µM
- MIC [7]: 31 µM
- MIC (P. aeruginosa CICC21630): >61 µM
- MIC (S. aureus ATCC25923 [8]): 0.95 µM

Molecule: CSCC[C@H](NC(=O)[C@H](CCCNC(=N)N)NC(=O)[C@H](Cc1c[nH]c2ccccc12)NC(=O)[C@H](CCC(N)=O)NC(=O)[C@H](Cc1c[nH]c2ccccc12)NC(=O)[C@H](CCCNC(=N)N)NC(=O)[C@H](CCCNC(=N)N)NC(=O)[C@H](CS)NC(=O)[C@H](CCCCN)NC(=O)[C@@H](N)Cc1ccccc1)C(=O)N[C@@H](CCCCN)C(=O)N[C@@H](CCCCN)C(=O)N[C@@H](CC(C)C)C(=O)NCC(=O)N[C@@H](C)C(=O)O [Lfcin1]
- hemolysis (mouse erythrocytes): approximately 7.5%

Molecule: FKAFRWAWRWKKLAAPS [Lfcin5]
- MIC (S. enteritidis CVCC3377): 1.9 µM
- S. aureus cells killed (S. aureus ATCC25923 [9]; ATCC25923, mouse, in vivo, iv, 15 mg/kg, 10 h): approximately 76.6%
- MIC [1]: >30 µM
- MIC [2]: >60 µM
- MIC [3]: 60 µM
- MIC [4]: 30 µM
- MIC [5]: 15 µM
- MIC (S. choleraesuis CVCC503): 60 µM
- MIC [6]: 7.4 µM
- MIC (Escherichia coli CVCC195): 30 µM
- MIC (S. pullorum CVCC1789): >60 µM
- MIC (S. pullorum CVCC1802): >60 µM
- MIC (E. coli CVCC1515): 60 µM
- MIC [7]: 30 µM
- MIC (P. aeruginosa CICC21630): >60 µM
- MIC (S. aureus ATCC25923 [8]): 0.93 µM

Molecule: CN[C@H](CC(C)C)C(=O)N[C@H]1C(=O)N[C@@H](CC(N)=O)C(=O)N[C@H]2C(=O)N[C@H]3C(=O)N[C@H](C(=O)N[C@H](C(=O)O)c4cc(O)cc(O)c4-c4cc3ccc4O)[C@H](O)c3ccc(c(Cl)c3)Oc3cc2cc(c3O[C@@H]2O[C@H](CO)[C@@H](O)[C@H](O)[C@H]2O[C@H]2C[C@](C)(N)[C@H](O)[C@H](C)O2)Oc2ccc(cc2Cl)[C@H]1O [vancomycin, reference compound]
- decrease of bacterial count in thigh (S. aureus ATCC25923 [9]; 10 mg/kg single i.v. dose (Fig. 6B), time not restated, sentence follows the 5 h result): 0.1 log10 CFU/g
- S. aureus cells killed (S. aureus ATCC25923 [9]; 10 h post-treatment, 10 mg/kg single i.v. dose): −1.2%
